Results taken from US9579406B2, “Phospholipid ether analogs as agents for detecting and locating cancer, and methods thereof” (Cellectar, Inc., priority 2004, dated 2017).

What was measured:
[1] = Acute GLP toxicology, single iv dose, 14 days observation, rats; assay type: in vivo
Protocol: Drug vehicle and drug product were provided to Dr. Kostyniak by Dr. Raymond Counsell of the University of Michigan for testing as described in the appended synopses of Study 27 and Study 28. […] This toxicology study was performed under GLP conditions.
This toxicology study was performed under GLP conditions.
The control and test rats were injected intravenously in the lateral tail vein. The rats were injected with the test or control article intravenously at 2 ml/kg of body weight using a 25 gauge needle and a 1-ml syringe. The injections were given by alternating rats from the control group with rats from the test group. The injections were given cautiously over a 30 second to one minute time interval. The injection to control rat #27-01 was given at 9:03 am and last injection to test rat #27-16 was given at 11:01 am.
The rats were observed by LAF personnel for signs of acute toxicity from the time of injection until […]. The rats were weighed five (5) times a week (Monday through Friday) and their body weights, recorded in […]. On Dec. […] A heart puncture was then performed using a 20 gauge needle and a 10 ml syringe to collect the blood samples for the hematological CBC and the clinical blood chemistries. The rats were exsanguinated to cause death. The thymus, heart, lungs, spleen, kidneys, liver, brain, and testes were collected, examined grossly, weighed and sectioned for pathology. The tissue samples (except thymus) were placed in jars of “Z-fix” fixative for histology.
Sixteen (16) Sprague-Dawley rats were received from Harlan-Sprague Dawley, Indianapolis, Ind. […] They were housed at the Laboratory Animal Facility and given food and water ad lib. Each rat was given a two-part number starting with 27 (the study number) and followed by a ‘unique’ number of ‘01’ to ‘16’ (numerical). Each rat was ear punched in the right ear with the unique number of ‘01’ to ‘16’. The control rats were numbered from #27-01 to #27-08 and the test rats were numbered from #27-09 to #27-16. The unique numbers were also applied to each cage indicating which rats were housed within that cage. There were four cages of control rats and four cages of test rats. […] The two groups of eight (8) rats were established by random assignment. The rats were weighed daily until the termination of the study on Day 14.
Safety: On Day 14, the blood samples for both groups will be analyzed for hematology and clinical chemistry. Additionally, the following organs will be removed for pathology report and histology slides: brain, lung, liver, heart, kidney, spleen, and testes. A compilation chart of organ weights with organ/weight ratios for each rat may be compiled.

phospholipase D (PLD) = test: Phospholipase D (PLD) assay; assay type: biochemical, cabbage; conditions: in the presence of ethanol
Protocol: Finally, several PLE analogs were subjected to a phospholipase D (PLD) assay. The PLD, which was isolated from cabbage, is similar to mammalian PLD in that the cabbage form affords phosphatidylethanol-type products in addition to phosphatidic acid when the enzymatic reaction is performed in the presence of ethanol. Several of the PLE analogs subjected to these assay conditions did give rise to the phosphatidylethanol adduct, indicating possible interaction with PLD. The inventors believes that NM404 is a metabolic substrate to human Phospholipase D, and that the relative absence of Phospholipase D in cancer cell membranes is the underlying mechanism for tumor-selective retention of NM404. Although known from the literature (reference[…]), it is still unclear why cancers lack PLD in their membranes.
As conclusion, the mechanism of selective retention of NM404 may be due to a decrease in the membrane levels of PLD, thus precluding metabolism and clearance of NM404 from the cell. […] This supports the finding of the in vitro cell culture uptake and retention study wherein it was shown that PLE analogs were sequestered by and subsequently metabolized by normal cells (which contained normal levels of PLD). […]

[2] = tested on: prostate and A549 lung cancer tumors; test: Comparative biodistribution in SCID mouse prostate and A549 lung cancer tumor models; conditions: in vivo
Protocol: In one such example in a rat mammary tumor model, tumor-to-normal tissue ratios reached a maximum at 96 hours with a tumor-to-blood ratio of 8.6 and tumor-to-muscle ratio of 20:1.
Extensive biodistribution data for the prototype agent ^125I-NM324 in several tumor models has previously been reported. […] For example, in a rat mammary tumor model, tumor-to-normal tissue ratios reached a maximum at 96 hours with a tumor-to-blood ratio of 8.6 and tumor-to-muscle ratio of 20:1. […] Comparative biodistribution data for NM324 and NM404 in SCID mice have been obtained in prostate and A549 lung cancer tumor models.

[3] = tested on: human PC-3 tumor cells in tibia; test: Intratibial PC-3 bone tumor model, radioactivity scan fused with microCT; assay type: in vivo, NUDE mice; conditions: 4 days following injection
Protocol: Following in vivo imaging of anesthetized mice, the prostate tumors were removed immediately, and imaged ex vivo on the same scanner (equipped with high resolution 1 mm collimator and 2-D acquisition and analysis software) in order to avoid tissue attenuation associated with the low energy of iodine-125 (FIG. 21). […] In an attempt to simulate bone metastases another experiment was performed wherein human PC-3 tumor cells were implanted into the tibia of immune compromised NUDE mice (n=6) according to a recent reports. Following tumor cell inoculation, mice were scanned serially by high-resolution microCT in order to monitor bone tumor development (FIG. 22). Once bone deterioration was detected, iodine-125 labeled NM404 was administered intravenously via tail vein. Mice were scanned for radioactivity and by microCT 4 days post NM404 administration. Radioactivity scans were fused with microCT scans (FIG. 23) to corroborate NM404 radioactivity and tumor location.

[4] = tested on: human RL-251 adrenal tumor xenograft; test: Time course in human RL-251 adrenal cancer xenograft; parameters: species or system SCID mouse; conditions: mouse, in vivo
Excerpt: (§1) NM404 has now been evaluated in 27 animal tumor models, including several lung, and it is clear that once the agent enters tumor cells, it reaches a metabolic dead end and becomes trapped. […] NM404 is also retained in spontaneous murine lung tumors (FIG. 13). Using ^125I-labeled NM404, the inventors have been able to image mammary and prostate tumors in mice in excess of 60 days. […] Imaging and tissue distribution studies performed in mouse models aimed at determining the uptake characteristics in a wide variety of tumor models are summarized in Table 2.

spontaneous lung tumor = test: Bioscan imaging of spontaneous lung tumor; assay type: in vivo, Apc^Min mouse; conditions: 4 days post injection
Excerpt: FIG. 13. Bioscan image (A) obtained 4 days post ^125I-NM404 injection into an Apc^Min mouse.
as §1

[5] = male rats, 2 mg/ml at 2 ml/kg iv, 14 days
[6] = male rats, 2 mg/ml at 2 ml/kg iv, day 14

Structure (SMILES) | acute toxicologic effects (conclusion) [1, 5] | behavior [1, 5] | mean body weights, test versus control group [1, 5] | tail vein injection site reactions [1, 5] | clinical blood chemistries and hematology, t-test versus control [1, 6] | gross examination of tissues [1, 6] | histopathology of organs [1, 6] | toxic effects ([1]; male rats, 4 mg/kg (Study 27)) | acute toxicity ([1]; unlabeled, 1200 times the anticipated imaging mass dose) | substrate for PLD (phospholipase D (PLD)) | tumor uptake [2] | correlation of radioactivity with tibial tumor [3] | tumor retention [4] | uptake into spontaneous lung tumor (spontaneous lung tumor)
C[N+](C)(C)CCOP(=O)([O-])OCCCCCCCCCCCCCCCCCCc1ccc(I)cc1 [NM-404, 18-(4-iodophenyl)-octadecylphosphocholine] | No acute toxicologic effects attributable to the test article had been found | No unusual behavior was noted | not significantly different | no adverse tissue reactions were noted | no significant differences found | No gross lesions were noted | no changes in the histopathology of the organs examined that can be attributed to the administration of the test material | no significant toxic effects were noted | no acute toxicities were found | a good substrate for this enzyme | exceeding 25 % of the injected dose |  |  | 
C[N+](C)(C)CCOP(=O)([O-])OCCCCCCCCCCCCCCCCCCc1ccc([125I])cc1 [Compound I-125-NM404] |  |  |  |  |  |  |  |  |  |  |  | Focal NM404 activity correlates well with tibial PC3 tumor | retention is evident even after 20 days | intense uptake of NM404 into the tumor
